Literature values, collected in patent publication US20240057588A1, “HERBICIDAL FORMULATION IN THE FORM OF MICROEMULSION” (RED SURCOS COLOMBIA LTDA, priority 2018, published 2024).

Legend:
[1] = qualitative

Question: With O=C(O)CNCP(=O)(O)O [glyphosate, reference compound] as the compound, how does the Solubility in water read?
Answer: very low

Question: Which Solubility in water does the source give for CN1CCCC1=O [N-Methylpyrrolidone] here?
Answer: miscible

Question: What about the “Solubility in organic solvents / other media” value [1] of the same compound?
Answer: Miscible

Question: Which Solubility in water does the source give for O=C1CCCCC1 [Cyclohexanone] here?
Answer: slightly soluble

Question: What about the “Solubility in organic solvents / other media” value [1] of the same compound?
Answer: soluble in most organic solvents
